Peptide text beside a SMILES is read from it. * marks the point of attachment. Biotin = O=C1N[C@H]2[C@H](CS[C@H]2CCCCC(=O)*)N1
Target: T1, Bcl-xL (Homo sapiens, UniProt Q07817)
T1 construct: The gene for the first 209 amino acids of Bcl-xL; made in house; host or cells: E. coli BL21(DE3), pET24a vector
Experiment: Equilibrium immunoassays (ELISA and AMMP data combined), Kd of ligands for Bcl-xL
Type: binding
Conditions: for Kd: Kd Determined Using Known [L]0, Monovalent equilibrium model, ELISA and AMMP data; for Kd / Ratio of Fit [L]0 to Known [L]0: mean ± standard error; for Ratio of Fit [L]0 to Known [L]0: simultaneous fit of Kd and [L]0
Protocol: Sample Preparation. A set of serially diluted Bcl-xL standards, at 2× the desired concentration, were made in sample buffer. For each ligand to be tested (such as peptide ligands), a set of dilutions at 2× the desired concentration was also prepared. The Bcl-xL samples were either mixed 1:1 with sample buffer (standards) or ligands (samples), and allowed to incubate at room temperature for 6 days. After the incubation, the standards and samples were analyzed using ELISA or the ViBE BioAnalyzer (FIG. 1).
ELISA Assays. ELISA plates were incubated overnight at 4° C. with 1.5 nmol of streptavidin (for D1 or Bcl-xL capture ligands) or 54H6 mAb in 1×PBS. Plates were washed 3× with wash buffer (1×PBS+0.1% (v/v) Tween-20) and blocked with 1×PBS+5% (w/v) BSA for two hours. For the D1 or Bcl-xL capture ligands, 100 μL of a 30 nM solution of the reagents was added to wells and incubated for 1 hour. This step was skipped for the 54H6 mAb capture ligand (already immobilized on the plate). After the capture ligand incubation, 100 μL of sample or standards were added in each well, and incubated for 1 hour at room temperature. Plates were washed, incubated with HRP-conjugated probe antibody (such as anti-HIS tag antibody) in sample buffer for 1 hour, washed, and incubated with TMB substrate (Thermo Scientific). Reactions were stopped after approximately 10 minutes with 2 M sulfuric acid, and the absorbance at 450 nm was measured via a plate reader (Molecular Devices). The ligand of interest, capture ligand, target protein, and probe ligand used in example ELISA assays performed are highlighted in the table below.
AMMP Assays. For the AMMP assays, 90 μL of each sample or standards was incubated with 30 μL of magnetic beads (12 μg of beads/mL) and fluorescein-labeled antibody (8 nM) in sample buffer for 1 hour. The experiment's run buffer was 1×PBS+1% (v/v) Tween-20+1% (v/v) heat-treated FBS (Invitrogen; FBS was heat treated for 15 minutes at 65° C. and filtered). BioScale Universal Detection Cartridges were used in performing all of the assays. The device was used per the manufacturer's instructions. The ligand of interest, capture ligand, target protein, and probe ligand used in example AMMP assays performed are highlighted in the table below.
Monovalent and Divalent Analysis. The data for both sets of target concentrations were simultaneously fit for Kd (in the Kd only fit) or Kd and Mo. The data was fitted to the equilibrium model using the lowest absolute deviation method, by varying either only Kd or both Kd and [L]0 simultaneously. The monovalent assay fitting was done by Excel Solver (GRG Non-Lin method) using a set of five initial values. The set of values which provided the lowest error after the fitting were chosen as the final values. For the divalent assays, the fitting was performed by MATLAB's fminsearch function and a set of 10 initial values for Kd1, Kd2, and [L]0. […] For the divalent reverse assay, an extra parameter, Cf, was also determined by fitting (FIG. 7 Reverse Assay).
Enzymatic Kd Calculation Assay. The Kd values of ligands of interest were determined using a protocol modified from Friguet et al., Journal of immunological methods, 77, 305-319 (1985). The samples were prepared and analyzed by ELISA assay in a similar process as described above. The OD450 for the standards and their concentration values were fit to a four parameter logistic curve (standard curve). The concentration of the free Bcl-xL in solution (responsible for the signal) for each sample was calculated using the standard curve, and converted into percent of Bcl-xL bound by ligand in solution.

T1 sequence (Q07817 1-209 limits assumed): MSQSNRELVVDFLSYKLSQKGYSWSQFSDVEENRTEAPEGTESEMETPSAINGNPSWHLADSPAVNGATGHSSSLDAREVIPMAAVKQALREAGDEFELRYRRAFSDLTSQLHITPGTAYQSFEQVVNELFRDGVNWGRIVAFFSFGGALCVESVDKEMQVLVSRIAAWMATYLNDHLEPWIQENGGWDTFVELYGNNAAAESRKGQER

Row | SMILES | kon [M⁻¹ s⁻¹] | Kd [nM] | Ratio of Fit [L]0 to Known [L]0
1 | CC[C@H](C)[C@H](NC(=O)[C@H](C)NC(=O)[C@@H](NC(=O)[C@@H](N)CCSC)[C@@H](C)CC)C(=O)N[C@@H](CO)C(=O)N[C@H](C(=O)N[C@H](C(=O)N[C@@H](Cc1ccc(O)cc1)C(=O)N[C@@H](CC(N)=O)C(=O)N[C@@H](Cc1ccc(O)cc1)C(=O)N[C@@H](CCCCN)C(=O)N[C@@H](CCCCN)C(=O)N[C@@H](C)C(=O)N[C@@H](C)C(=O)N[C@@H](CC(=O)O)C(=O)N[C@@H](Cc1c[nH]cn1)C(=O)N[C@@H](Cc1ccc(O)cc1)C(=O)N[C@@H](C)C(=O)N[C@@H](CCSC)C(=O)N[C@H](C(=O)N[C@@H](CCCCN)C(=O)NCC(=O)N[C@@H](CO)C(=O)N[C@@H](CCCCNC(=O)CCCC[C@@H]1SC[C@@H]2NC(=O)N[C@@H]21)C(N)=O)[C@@H](C)O)[C@@H](C)CC)[C@@H](C)O [D1] (H-MIAISTIYNYKKAADHYAMTKGSK(Biotin)-NH2) | 240000 | 0.0085 ± 0.002 | 109% ± 7%
2 | CC[C@H](C)[C@H](NC(=O)[C@@H](NC(=O)[C@@H](NC(=O)[C@@H](NC(=O)[C@H](CCC(=O)O)NC(=O)[C@@H](NC(=O)[C@@H](N)CCSC)[C@@H](C)CC)[C@@H](C)O)[C@@H](C)CC)[C@@H](C)O)C(=O)N[C@@H](Cc1ccc(O)cc1)C(=O)N[C@@H](CC(N)=O)C(=O)N[C@@H](Cc1ccc(O)cc1)C(=O)N[C@@H](CCCCN)C(=O)N[C@@H](CCCCN)C(=O)N[C@@H](C)C(=O)N[C@@H](C)C(=O)N[C@@H](CC(=O)O)C(=O)N[C@@H](Cc1c[nH]cn1)C(=O)N[C@@H](Cc1ccccc1)C(=O)N[C@@H](CO)C(=O)N[C@@H](CCSC)C(=O)N[C@@H](CO)C(=O)N[C@@H](CCSC)C(=O)NCC(=O)N[C@@H](CO)C(=O)N[C@@H](CCCCNC(=O)CCCC[C@@H]1SC[C@@H]2NC(=O)N[C@@H]21)C(N)=O [E1] (H-MIETITIYNYKKAADHFSMSMGSK(Biotin)-NH2) | 310000 | 0.039 ± 0.006 | 88% ± 10%

From patent publication US20180172683A1, “METHODS FOR ANALYZING THE INTERACTION BETWEEN A TARGET PROTEIN AND A LIGAND” (UNIVERSITY OF SOUTHERN CALIFORNIA, priority 2015, published 2018)
